Legend:
[1] = tested on: colorectal cancer line HT29 cells; test: CTG (CellTiter-Glo) cell viability assay, 6×6 combo matrix, 72 h, HT29; settings: for Relatively Cell inhibition of vehicle control(%): HT29;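 as to all read-outs here: cells exposed to compounds for 72 hours at 37 °C under 5% CO2, then viability read as luminescence after adding CellTiter-Glo Reagent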
Experimental: (§1) To measure the cell inhibition effect of compounds and synergy effect of test articles on ten (10) cell lines using standard CTG assay.
(§2) 7) Using complete cell medium, adjust the volume of the suspension to achieve a cell concentration.
(§3) b. A549, T47D, SK-OV-3, MKN45, SK-Hep-1, HT-29, Capan-1, 786-O and LNCaP cell line, for compounds and vehicle groups, the seeding density of cell lines is 3000 cells/80 µL per well. For blank groups, add 100 µL medium. For PBS groups, add 100 µL PBS.
(§4) 8) Incubate the U87MG, A549, T47D, SK-OV-3, MKN45, SK-Hep-1, HT-29, Capan-1, 786-O and LNCaP cells overnight at 37° C./5% CO2.
(§5) Solid compound of cis-platinum was solubilized in PBS to a stock solution of 3.333 mM.
(§6) Final volume is 100 µL per well at this point.
(§7) 5) Incubate the plates at 37° C./5% CO2 for 72 hours.
(§8) 1) Incubate the plates at room temperature and away from light for 30 minutes.
(§9) 3) Add 100 µL /well of CellTiter-Glo® Reagent in each well. Avoid light.
(§10) 4) Mix contents for 2 minutes on an orbital shaker.
(§11) 5) Incubate plate at room temperature for 10 minutes to stabilize the luminescent signal.
6) Read plates in Envision.

[2] = tested on: Liver cancer line SK-HEP-1 cells;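 also: luminescent signal read after 72 h compound exposure at 37 °C under 5% CO2, with medium-only wells serving as blank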
Experimental: as §1, §2, §3, §4, §5, §6, §7, §8, §9, §10, §11
6) Read plates in Envision.

[3] = tested on: glioblastoma line U87MG cells;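 also: U87MG cells seeded at 2000 per well, exposed 72 h, viability read by CellTiter-Glo luminescence, inhibition expressed relative to vehicle-treated wells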
[4] = tested on: lung adenocarcinoma line A549 cells;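 also: luminescent ATP readout with CellTiter-Glo after compound exposure, used to assess growth inhibition and combination synergy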
Experimental: as §1, §2
A549, T47D, SK-OV-3, MKN45, SK-Hep-1, HT-29, Capan-1, 786-O and LNCaP cell line, for compounds and vehicle groups, the seeding density of cell lines is 3000 cells/80 µL per well. For blank groups, add 100 µL medium. For PBS groups, add 100 µL PBS.
as §4, §5, §6, §7, §8, §9, §10, §11
6) Read plates in Envision.

[5] = tested on: gastric cancer line MKN45 cells;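 also: MKN45 cell viability read as CellTiter-Glo luminescence after 72 h culture at 37 °C under 5% CO2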
[6] = Homo sapiens, HT-29, read-out: Relatively Cell inhibition of vehicle control(%)

O=c1c(O)c(-c2cc(O)c(O)c(O)c2)oc2cc(O)cc(O)c12 [myricetin]
Relatively Cell inhibition of vehicle control(%) ([1]; Myr 0.8 µM only (Cis 0)): 3.87% | Relatively Cell inhibition of vehicle control(%) ([1]; Myr 0.8 µM only (Dox 0)): -1.09% | Relatively Cell inhibition of vehicle control(%) ([1]; Myr 0.8 µM only (Tax 0)): -1.36% | Relatively Cell inhibition of vehicle control(%) ([1]; Myr 0.8 µM only (Top 0)): -0.48% | Relatively Cell inhibition of vehicle control(%) ([1]; Myr 4 µM only (Cis 0)): 6.56% | Relatively Cell inhibition of vehicle control(%) ([1]; Myr 4 µM only (Dox 0)): -0.67% | Relatively Cell inhibition of vehicle control(%) ([1]; Myr 4 µM only (Tax 0)): 0.80% | Relatively Cell inhibition of vehicle control(%) ([1]; Myr 4 µM only (Top 0)): 3.33% | Relatively Cell inhibition of vehicle control(%) ([1]; Myr 20 µM only (Cis 0)): 24.55% | Relatively Cell inhibition of vehicle control(%) ([1]; Myr 20 µM only (Dox 0)): 23.37% | Relatively Cell inhibition of vehicle control(%) ([1]; Myr 20 µM only (Tax 0)): 32.84% | Relatively Cell inhibition of vehicle control(%) ([1]; Myr 20 µM only (Top 0)): 24.77% | Relatively Cell inhibition of vehicle control(%) ([1]; Myr 100 µM only (Cis 0)): 90.42% | Relatively Cell inhibition of vehicle control(%) ([1]; Myr 100 µM only (Dox 0)): 74.39% | Relatively Cell inhibition of vehicle control(%) ([1]; Myr 100 µM only (Tax 0)): 88.39% | Relatively Cell inhibition of vehicle control(%) ([1]; Myr 100 µM only (Top 0)): 87.04%

CC(=O)O[C@H]1C(=O)[C@@]2(C)[C@H]([C@H](OC(=O)c3ccccc3)[C@]3(O)C[C@H](OC(=O)[C@H](O)[C@@H](NC(=O)c4ccccc4)c4ccccc4)C(C)=C1C3(C)C)[C@]1(OC(C)=O)CO[C@@H]1C[C@@H]2O [taxol, paclitaxel]
inhibition [2]: 0.78% | inhibition [3]: 5.92% | inhibition [4]: 13.7% | inhibition [5]: 35.1% | inhibition at 0.008 µM [1, 6]: 67.9% | inhibition at 0.04 µM [1, 6]: 83.4% | inhibition at 0.2 µM [1, 6]: 83.1% | inhibition at 1 µM [1, 6]: 82% | Relatively Cell inhibition of vehicle control(%) ([1]; Tax 8 nM only (Myr 0)): 73.73% | Relatively Cell inhibition of vehicle control(%) ([1]; Tax 40 nM only (Myr 0)): 80.46% | Relatively Cell inhibition of vehicle control(%) ([1]; Tax 200 nM only (Myr 0)): 81.35% | Relatively Cell inhibition of vehicle control(%) ([1]; Tax 1000 nM only (Myr 0)): 79.03%

COc1cccc2c1C(=O)c1c(O)c3c(c(O)c1C2=O)C[C@@](O)(C(=O)CO)C[C@@H]3O[C@H]1C[C@H](N)[C@H](O)[C@H](C)O1 [doxorubicin]
inhibition [2]: 4.48% | inhibition [3]: 27.5% | inhibition at 0.08 µM [1, 6]: 25.6% | inhibition at 0.4 µM [1, 6]: 61.1% | inhibition at 2 µM [1, 6]: 92.3% | inhibition at 10 µM [1, 6]: 79.1%

CC[C@@]1(O)C(=O)OCc2c1cc1n(c2=O)Cc2cc3c(CN(C)C)c(O)ccc3nc2-1 [topotecan]
inhibition [2]: -0.38% | inhibition [5]: 14.9% | inhibition at 0.08 µM [1, 6]: 26.1% | inhibition at 0.4 µM [1, 6]: 64.8% | inhibition at 2 µM [1, 6]: 93.2% | inhibition at 10 µM [1, 6]: 79.4% | Relatively Cell inhibition of vehicle control(%) ([1]; Top 16 nM only (Myr 0)): 11.50% | Relatively Cell inhibition of vehicle control(%) ([1]; Top 80 nM only (Myr 0)): 21.57% | Relatively Cell inhibition of vehicle control(%) ([1]; Top 400 nM only (Myr 0)): 71.12% | Relatively Cell inhibition of vehicle control(%) ([1]; Top 2000 nM only (Myr 0)): 94.54% | Relatively Cell inhibition of vehicle control(%) ([1]; Top 10000 nM only (Myr 0)): 82.42%

Reference: patent US20230165831A1, “METHOD AND COMPOSITION FOR RENDERING CANCER CELLS SUSCEPTIBLE TO TREATMENT BY TARGETED ONCOGENETIC DRIVERS” (IMPACT BIOLIFE SCIENCE, INC., priority 2021, published 2023)
